Results on one compound are retold here after ChEMBL document CHEMBL4715827, “Structure-guided design of pyridoclax derivatives based on Noxa / Mcl-1 interaction mode” (Eur J Med Chem, 2018).

Data set [1] can be described thus: Pro-apoptotic activity in human IGROV1-R10 cells transfected with Bcl-xL siRNA assessed as accumulation at sub G1 phase at 15 uM incubated for 6 hrs by propidium iodide staining based flow cytometry analysis relative to control. It counts as functional.
Data set [2] in a line: Pro-apoptotic activity in human IGROV1-R10 cells transfected with Bcl-xL siRNA assessed as accumulation at sub G1 phase at 25 uM incubated for 24 hrs by propidium iodide staining based flow cytometry analysis (reference value: 17% ). The format is functional.
The test system of another data set is IGROV1-R10. In words: Pro-apoptotic activity in human IGROV1-R10 cells assessed as cleaved caspase-3 expression at 15 uM measured after 24 hrs in presence of ABT-737 by Western blot analysis. The format is functional, cell-based. (In general: In western blotting, separated proteins are transferred to a membrane and probed.)
A short description of data set [3]: Pro-apoptotic activity in human IGROV1-R10 cells assessed as accumulation at sub G1 phase at 15 uM incubated for 24 hrs in presence of ABT-737 by propidium iodide staining based flow cytometry analysis (reference value: 10.8% ). It counts as functional.
A short description of data set [4]: Pro-apoptotic activity in human IGROV1-R10 cells assessed as accumulation at sub G1 phase at 25 uM incubated for 24 hrs in presence of ABT-737 by propidium iodide staining based flow cytometry analysis (reference value: 21.2% ). The format is functional.
Data set [5] can be described thus: Cytotoxicity against human AG1521 cells assessed as accumulation subG1 phase at 15 uM after 24 hrs by flow cytometry (reference value: 1.7%). Particulars: ag1521, 24 h. The format is cell-based. In general terms: Flow cytometry measures light scatter and fluorescence of single cells or particles in a stream.
A further data set relates to A2780. In words: Pro-apoptotic activity in human A2780 cells assessed as increase in caspase3/7 positive cells at 15 uM measured after 24 hrs in presence of ABT-737 by DAPI staining based fluorescence microscopy analysis. The format is functional, cell-based.
Data set [6] can be described thus: Pro-apoptotic activity in human IGROV1-R10 cells transfected with Bcl-xL siRNA assessed as accumulation at sub G1 phase at 15 uM incubated for 8 hrs by propidium iodide staining based flow cytometry analysis relative to control. It counts as functional.
Data set [7] in a line: Pro-apoptotic activity in human IGROV1-R10 cells transfected with Bak siRNA assessed as accumulation at sub G1 phase at 15 uM incubated for 24 hrs by propidium iodide staining based flow cytometry analysis (reference value: 3.4%). It counts as functional.

Molecules are shown by their SMILES. The source made the active and inactive calls. The rule behind the calls is not given here.

For `Cc1cc(-c2ncc(-c3cccnc3)cc2/C=C/c2ccccc2)cnc1-c1cccc(C/C(N)=N/O)c1`, the Activity in [1] came out at 19.3%; in data set [2] it was 59%; in data set [3], 57.43%; in [4] it was 55.75%; in data set [5] it was 1.98%; in data set [6], 35.2%. In addition, the Activity in data set [7] is 6.8%. The result in the data set on IGROV1-R10 and in the data set on A2780 was Active.
